Test results published in US12492188B2, “1H-benzo[D]imidazole derivatives as TLR9 inhibitors for the treatment of fibrosis” (BRISTOL-MYERS SQUIBB COMPANY, priority 2020, dated 2025).
Where two headings read alike, the source gives them in different places.

Key:
Assay type in all cases: cell-based
human TLR7 = target: T1, human TLR7 (Homo sapiens, UniProt Q9NYK1); experiment: TLR7 inhibition reporter assay (HEK-Blue cells, secreted embryonic alkaline phosphatase reporter); details: HEK-Blue cells overexpressing human TLR7, stimulated with gardiquimod 7.5 μM; read-out: TLR 7 IC50
T1 construct: host or cells: HEK-Blue cells (HEK293-derived reporter line)
T1 sequence (Q9NYK1 27-1049): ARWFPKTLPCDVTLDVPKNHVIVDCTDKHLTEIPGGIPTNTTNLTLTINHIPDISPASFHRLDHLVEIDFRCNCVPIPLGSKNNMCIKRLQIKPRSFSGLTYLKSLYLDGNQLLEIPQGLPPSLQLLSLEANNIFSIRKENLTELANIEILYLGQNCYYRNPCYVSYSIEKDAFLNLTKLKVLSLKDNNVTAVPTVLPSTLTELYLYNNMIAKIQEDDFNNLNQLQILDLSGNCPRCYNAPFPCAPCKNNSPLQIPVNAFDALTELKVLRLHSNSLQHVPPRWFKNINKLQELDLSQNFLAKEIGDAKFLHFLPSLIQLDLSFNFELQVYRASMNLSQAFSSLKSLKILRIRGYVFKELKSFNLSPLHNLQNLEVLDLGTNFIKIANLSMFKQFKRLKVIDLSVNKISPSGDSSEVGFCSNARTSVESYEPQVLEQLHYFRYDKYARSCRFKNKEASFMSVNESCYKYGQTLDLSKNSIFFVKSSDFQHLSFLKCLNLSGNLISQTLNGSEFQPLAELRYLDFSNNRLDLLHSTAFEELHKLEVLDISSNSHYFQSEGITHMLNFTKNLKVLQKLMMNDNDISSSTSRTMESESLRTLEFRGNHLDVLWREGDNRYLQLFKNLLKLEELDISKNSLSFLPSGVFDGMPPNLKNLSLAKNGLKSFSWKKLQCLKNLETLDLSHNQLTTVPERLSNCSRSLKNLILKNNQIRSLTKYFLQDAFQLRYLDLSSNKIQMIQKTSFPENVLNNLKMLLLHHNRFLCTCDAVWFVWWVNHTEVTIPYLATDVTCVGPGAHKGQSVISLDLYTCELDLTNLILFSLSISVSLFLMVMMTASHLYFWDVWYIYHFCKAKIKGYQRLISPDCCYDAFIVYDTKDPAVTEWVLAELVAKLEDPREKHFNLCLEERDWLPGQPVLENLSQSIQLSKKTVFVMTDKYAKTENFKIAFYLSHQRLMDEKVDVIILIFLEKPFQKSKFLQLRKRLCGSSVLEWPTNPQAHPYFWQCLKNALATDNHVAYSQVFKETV
Method in brief: (§1)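 Read-out is SEAP colour from HEK-Blue Detection medium after 22 h at 37 °C, converted to percent inhibition between agonist-plus-DMSO and reference-inhibitor wells. Receptor-overexpressing HEK-Blue cells received compound over 0.05 nM–50 μM for 30 min before agonist: gardiquimod 7.5 μM for TLR7, R848 15.9 μM for TLR8, ODN2006 5 nM for TLR9.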

human TLR9 = target: T2, human TLR9 (Homo sapiens, UniProt Q9NR96); experiment: TLR9 inhibition reporter assay (HEK-Blue cells, secreted embryonic alkaline phosphatase reporter)
T2 construct: host or cells: HEK-Blue cells (HEK293-derived reporter line)
T2 sequence (Q9NR96 26-1032): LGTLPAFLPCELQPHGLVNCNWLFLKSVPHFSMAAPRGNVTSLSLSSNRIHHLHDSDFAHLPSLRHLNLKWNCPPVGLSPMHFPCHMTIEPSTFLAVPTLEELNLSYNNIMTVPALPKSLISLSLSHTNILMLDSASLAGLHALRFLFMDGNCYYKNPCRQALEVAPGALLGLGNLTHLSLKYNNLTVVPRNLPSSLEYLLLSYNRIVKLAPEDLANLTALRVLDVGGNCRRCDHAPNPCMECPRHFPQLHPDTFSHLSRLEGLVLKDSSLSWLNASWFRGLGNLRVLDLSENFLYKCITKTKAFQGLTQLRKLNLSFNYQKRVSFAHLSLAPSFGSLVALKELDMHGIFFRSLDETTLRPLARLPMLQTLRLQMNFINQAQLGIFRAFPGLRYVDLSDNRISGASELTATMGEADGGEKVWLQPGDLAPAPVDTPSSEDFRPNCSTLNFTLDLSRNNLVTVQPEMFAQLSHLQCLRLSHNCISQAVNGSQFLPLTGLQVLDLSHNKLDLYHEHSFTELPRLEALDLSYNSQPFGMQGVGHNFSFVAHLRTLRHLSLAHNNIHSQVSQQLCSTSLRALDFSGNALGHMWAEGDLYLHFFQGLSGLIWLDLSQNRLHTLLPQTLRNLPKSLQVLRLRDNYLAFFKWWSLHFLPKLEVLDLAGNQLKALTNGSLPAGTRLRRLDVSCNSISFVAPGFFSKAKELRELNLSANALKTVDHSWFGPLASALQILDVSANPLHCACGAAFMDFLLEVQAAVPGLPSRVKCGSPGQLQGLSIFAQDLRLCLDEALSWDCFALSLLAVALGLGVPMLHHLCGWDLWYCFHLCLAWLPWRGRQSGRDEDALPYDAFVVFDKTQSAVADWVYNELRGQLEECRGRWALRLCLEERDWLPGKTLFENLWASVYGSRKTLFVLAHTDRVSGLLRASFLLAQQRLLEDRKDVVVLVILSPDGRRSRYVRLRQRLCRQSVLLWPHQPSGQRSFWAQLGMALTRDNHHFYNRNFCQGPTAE
Method in brief: as §1

human TLR8 = target: T3, human TLR8 (Homo sapiens, UniProt Q9NR97); experiment: TLR8 inhibition reporter assay (HEK-Blue cells, secreted embryonic alkaline phosphatase reporter); details: HEK-Blue cells overexpressing human TLR8, stimulated with R848 15.9 μM; read-out: TLR 8 IC50
T3 construct: host or cells: HEK-Blue cells (HEK293-derived reporter line)
T3 sequence (Q9NR97 27-1041): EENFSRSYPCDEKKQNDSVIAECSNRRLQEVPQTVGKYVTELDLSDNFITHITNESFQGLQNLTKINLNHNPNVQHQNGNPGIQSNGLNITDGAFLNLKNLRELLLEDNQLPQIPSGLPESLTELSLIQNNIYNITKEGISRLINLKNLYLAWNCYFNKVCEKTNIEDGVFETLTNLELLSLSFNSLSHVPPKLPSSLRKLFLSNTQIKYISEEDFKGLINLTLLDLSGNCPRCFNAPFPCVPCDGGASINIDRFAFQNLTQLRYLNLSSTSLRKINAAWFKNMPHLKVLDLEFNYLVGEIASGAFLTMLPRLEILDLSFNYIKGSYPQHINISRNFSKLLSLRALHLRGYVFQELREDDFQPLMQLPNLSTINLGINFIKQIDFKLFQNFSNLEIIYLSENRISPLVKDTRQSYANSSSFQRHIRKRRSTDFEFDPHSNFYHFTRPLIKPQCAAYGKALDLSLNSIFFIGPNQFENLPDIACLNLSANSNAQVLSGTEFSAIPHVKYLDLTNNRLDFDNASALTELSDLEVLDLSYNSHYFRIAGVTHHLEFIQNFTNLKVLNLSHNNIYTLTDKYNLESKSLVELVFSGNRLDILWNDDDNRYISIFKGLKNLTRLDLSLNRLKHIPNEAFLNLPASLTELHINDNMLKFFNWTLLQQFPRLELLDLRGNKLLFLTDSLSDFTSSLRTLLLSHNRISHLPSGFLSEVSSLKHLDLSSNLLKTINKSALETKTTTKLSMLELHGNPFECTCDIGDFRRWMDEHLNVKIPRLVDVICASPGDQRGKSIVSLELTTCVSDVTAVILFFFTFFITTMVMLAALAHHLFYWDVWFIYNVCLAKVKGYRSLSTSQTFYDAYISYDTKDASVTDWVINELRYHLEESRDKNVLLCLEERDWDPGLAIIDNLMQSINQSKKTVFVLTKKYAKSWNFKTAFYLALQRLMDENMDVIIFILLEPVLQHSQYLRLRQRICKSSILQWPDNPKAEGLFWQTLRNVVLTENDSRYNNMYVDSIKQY
Method in brief: as §1

[1] = HEK-Blue cells overexpressing human TLR9, stimulated with ODN2006 5 nM, read-out: TLR 9 IC50

Row | SMILES | IC50 (human TLR7) [nM] | IC50 (human TLR9) [nM] | IC50 (human TLR9; [1]) [nM] | IC50 (human TLR8) [nM] | IC50 (human TLR9; HEK-Blue human TLR9 reporter cells) [nM]
1 | Cn1c(-c2ccc(S(C)(=O)=O)cc2)nc2cc(C3CCN(C4CC5CCC(C4)N5C4COC4)CC3)c(F)cc21 (single isomer, unassigned) [Example 254, 6-fluoro-1-methyl-2-(4-(methylsulfonyl)phenyl)-5-(1-(8-(oxetan-3-yl)-8-azabicyclo[3.2.1]octan-3-yl)piperidin-4-yl)-1H-benzo[d]imidazole] | > 50000 | 5300 | 5310 | > 50000 | –
2 | Cn1c(-c2ccc(S(C)(=O)=O)cc2)nc2cc(C3CCN(C4CC5CCC(C4)N5C4CCOCC4)CC3)c(F)cc21 (single isomer, unassigned) [Example 255, 6-fluoro-1-methyl-2-(4-(methylsulfonyl)phenyl)-5-(1-(8-(tetrahydro-2H-pyran-4-yl)-8-azabicyclo[3.2.1]octan-3-yl)piperidin-4-yl)-1H-benzo[d]imidazole] | > 50000 | 72 | 72 | > 50000 | –
3 | Cn1c(-c2ccc(S(C)(=O)=O)cc2)nc2cc(C3CCN(C4CC5CCC(C4)N5C4CCOCC4)CC3)c(F)cc21 (single isomer, unassigned) [Example 256, 6-fluoro-1-methyl-2-(4-(methylsulfonyl)phenyl)-5-(1-(8-(tetrahydro-2H-pyran-4-yl)-8-azabicyclo[3.2.1]octan-3-yl)piperidin-4-yl)-1H-benzo[d]imidazole] | 17600 | 320 | 315 | > 50000 | –
4 | CC(C)CN1C2CCC1CC(N1CCC(c3ccc4nc(-c5ccc(S(C)(=O)=O)cc5)n(C)c4c3F)CC1)C2 (single isomer, unassigned) [Example 266, 7-fluoro-6-(1-(8-isobutyl-8-azabicyclo[3.2.1]octan-3-yl)piperidin-4-yl)-1-methyl-2-(4-(methylsulfonyl)phenyl)-1H-benzo[d]imidazole] | 18600 | 97 | 97 | > 50000 | –
5 | CC(C)CN1C2CCC1CC(N1CCC(c3ccc4nc(-c5ccc(S(C)(=O)=O)cc5)n(C)c4c3F)CC1)C2 (single isomer, unassigned) [Example 267, 7-fluoro-6-(1-(8-isobutyl-8-azabicyclo[3.2.1]octan-3-yl)piperidin-4-yl)-1-methyl-2-(4-(methylsulfonyl)phenyl)-1H-benzo[d]imidazole] | > 50000 | 350 | 347 | > 50000 | –
6 | Cn1c(-c2ccc(S(C)(=O)=O)cc2)nc2ccc(C3CCN(C4CC5CCC(C4)N5C4CCC4)CC3)c(F)c21 (single isomer, unassigned) [Example 270, 6-(1-(8-cyclobutyl-8-azabicyclo[3.2.1]octan-3-yl)piperidin-4-yl)-7-fluoro-1-methyl-2-(4-(methylsulfonyl)phenyl)-1H-benzo[d]imidazole] | 17700 | 65 | 65 | > 50000 | –
7 | Cn1c(-c2ccc(S(C)(=O)=O)cc2)nc2ccc(C3CCN(C4CC5CCC(C4)N5C4CCC4)CC3)c(F)c21 (single isomer, unassigned) [Example 271, 6-(1-(8-cyclobutyl-8-azabicyclo[3.2.1]octan-3-yl)piperidin-4-yl)-7-fluoro-1-methyl-2-(4-(methylsulfonyl)phenyl)-1H-benzo[d]imidazole] | 31600 | 410 | 407 | > 50000 | –
8 | COCCN1C2CCC1CC(N1CCC(c3ccc4nc(-c5ccc(S(C)(=O)=O)cc5)n(C)c4c3F)CC1)C2 (single isomer, unassigned) [Example 276, 7-fluoro-6-(1-(8-(2-methoxyethyl)-8-azabicyclo[3.2.1]octan-3-yl)piperidin-4-yl)-1-methyl-2-(4-(methylsulfonyl)phenyl)-1H-benzo[d]imidazole] | 1500 | 170 | 167 | > 50000 | –
9 | COCCN1C2CCC1CC(N1CCC(c3ccc4nc(-c5ccc(S(C)(=O)=O)cc5)n(C)c4c3F)CC1)C2 (single isomer, unassigned) [Example 277, 7-fluoro-6-(1-(8-(2-methoxyethyl)-8-azabicyclo[3.2.1]octan-3-yl)piperidin-4-yl)-1-methyl-2-(4-(methylsulfonyl)phenyl)-1H-benzo[d]imidazole] | 1000 | 270 | 269 | 16300 | –
10 | Cn1c(-c2ccc(S(C)(=O)=O)cc2)nc2c(F)cc(C3CCN(C4CC5CCC(C4)N5CC4CC4)CC3)cc21 (single isomer, unassigned) [Example 282, 6-(1-(8-(cyclopropylmethyl)-8-azabicyclo[3.2.1]octan-3-yl)piperidin-4-yl)-4-fluoro-1-methyl-2-(4-(methylsulfonyl)phenyl)-1H-benzo[d]imidazole] | 7100 | – | 108 | > 50000 | 110
